Test results reported in ChEMBL document CHEMBL1144434, “Structure-activity relationships within a series of caspase inhibitors. Part 2: Heterocyclic warheads” (Bioorg Med Chem Lett, 2005).

How the values were obtained:
Caspase-3 (Homo sapiens) = molecular target: T1, Caspase-3 (Homo sapiens) (UniProt P42574); assay: Binding affinity against Caspase-3
T1 sequence (whole entry): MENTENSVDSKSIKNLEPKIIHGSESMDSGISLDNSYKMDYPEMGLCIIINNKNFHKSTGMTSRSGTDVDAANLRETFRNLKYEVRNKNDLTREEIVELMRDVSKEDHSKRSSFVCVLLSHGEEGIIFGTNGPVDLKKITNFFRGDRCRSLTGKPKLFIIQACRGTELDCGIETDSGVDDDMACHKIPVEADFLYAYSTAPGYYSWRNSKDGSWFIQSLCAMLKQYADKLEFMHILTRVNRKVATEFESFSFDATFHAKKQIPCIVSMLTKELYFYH

Caspase-1 (Mus musculus) = molecular target: T2, Caspase-1 (Mus musculus) (UniProt P29452); assay: Binding affinity against mouse Caspase-1
T2 sequence (whole entry): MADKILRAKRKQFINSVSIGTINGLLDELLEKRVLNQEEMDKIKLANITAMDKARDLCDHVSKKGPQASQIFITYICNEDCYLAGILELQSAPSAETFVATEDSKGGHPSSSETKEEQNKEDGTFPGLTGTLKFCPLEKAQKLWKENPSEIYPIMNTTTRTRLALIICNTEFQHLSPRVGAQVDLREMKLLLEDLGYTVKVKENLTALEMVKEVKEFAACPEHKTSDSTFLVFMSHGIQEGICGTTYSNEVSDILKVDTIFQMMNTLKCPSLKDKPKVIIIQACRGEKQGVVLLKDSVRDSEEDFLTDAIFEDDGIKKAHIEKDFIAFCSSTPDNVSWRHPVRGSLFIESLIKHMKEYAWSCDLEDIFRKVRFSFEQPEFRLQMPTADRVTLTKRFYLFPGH

Caspase-6 (Homo sapiens) [1] = molecular target: T3, Caspase-6 (Homo sapiens) (UniProt P55212); assay: Reversible inhibition against Caspase-6
T3 sequence (whole entry): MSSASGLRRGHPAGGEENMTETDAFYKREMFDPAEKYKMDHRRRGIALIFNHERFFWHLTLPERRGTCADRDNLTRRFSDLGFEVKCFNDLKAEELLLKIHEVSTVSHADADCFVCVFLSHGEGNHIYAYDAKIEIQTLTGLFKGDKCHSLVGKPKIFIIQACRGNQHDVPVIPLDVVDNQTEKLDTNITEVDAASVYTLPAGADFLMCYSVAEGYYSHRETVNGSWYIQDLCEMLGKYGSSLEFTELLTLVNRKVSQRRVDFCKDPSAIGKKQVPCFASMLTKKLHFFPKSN

Caspase-8 (Homo sapiens) = Caspase-8 (Homo sapiens) (UniProt Q14790); assay: Binding affinity against Caspase-8
Jurkat = assay: Inhibitory concentration for cellular activity in jurkat assay; assay type: functional, cell-based; settings: Homo sapiens
Caspase-6 (Homo sapiens) [2] = molecular target: T3, Caspase-6 (Homo sapiens); assay: Binding affinity against Caspase-6

Caspase-8 (Homo sapiens), sequence (Q14790 217-374 limits assumed): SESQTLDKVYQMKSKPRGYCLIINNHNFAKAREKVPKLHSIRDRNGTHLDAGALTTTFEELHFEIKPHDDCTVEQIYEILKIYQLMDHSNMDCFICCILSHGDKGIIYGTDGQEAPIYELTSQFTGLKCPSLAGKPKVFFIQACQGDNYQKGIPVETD
Caspase-8 (Homo sapiens), sequence (Q14790 385-479 limits assumed): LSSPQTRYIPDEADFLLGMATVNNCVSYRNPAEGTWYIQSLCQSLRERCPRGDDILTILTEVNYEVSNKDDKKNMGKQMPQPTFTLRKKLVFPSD

SMILES	k3/ki (Caspase-3 (Homo sapiens))	k3/ki (Caspase-1 (Mus musculus))	k3/ki (Caspase-6 (Homo sapiens) [1])	k3/ki (Caspase-8 (Homo sapiens))	IC50 (Jurkat) [µM]	k3/ki (Caspase-6 (Homo sapiens) [2])
CCOC(=O)c1c(C)noc1OCC(=O)[C@H](CC(=O)O)NC(=O)[C@@H](NC(=O)COc1cccc2ccccc12)C(C)C	5670 1/m/s	1440 1/m/s	0 1/m/s	1140 1/m/s	> 200	–
CC(C)[C@H](NC(=O)COc1cccc2ccccc12)C(=O)N[C@@H](CC(=O)O)C(=O)CSc1nc(-c2ccccc2)c(-c2ccccc2)[nH]1	1390 1/m/s	199 1/m/s	–	0 1/m/s	> 200	22 1/m/s
CC(C)[C@H](NC(=O)COc1cccc2ccccc12)C(=O)N[C@@H](CC(=O)O)C(=O)COc1ccccn1	733 1/m/s	138 1/m/s	–	8 1/m/s	> 200	5 1/m/s
CC(C)[C@H](NC(=O)COc1cccc2ccccc12)C(=O)N[C@@H](CC(=O)O)C(=O)CSc1nc2ccccc2s1	3570 1/m/s	202 1/m/s	–	0 1/m/s	> 200	0 1/m/s
CC(C)[C@H](NC(=O)COc1cccc2ccccc12)C(=O)N[C@@H](CC(=O)O)C(=O)COc1cc(C(F)(F)F)n(C)n1	35500 1/m/s	9400 1/m/s	–	295 1/m/s	46	509 1/m/s
CC(C)[C@H](NC(=O)COc1cccc2ccccc12)C(=O)N[C@@H](CC(=O)O)C(=O)COc1cccc2cccnc12	4360 1/m/s	1260 1/m/s	–	39 1/m/s	> 200	140 1/m/s
